Results from patent US6303596A, “Use of taurolidine for treatment of leukemias” (priority 2000, dated 2001).

Legend:
Lymphocytes [1] = assay: TUNEL flow cytometry, lymphocytes in PBMC, culture medium; type: cell-based, human; settings: 6 h
Method: FIG. 14A and FIG. 14B are terminal deoxytransferase-mediated deoxyuridine-triphosphate-biotin nick end labeling assay (TUNEL) analyses of control cells and taurolidine-treated PBMC, respectively. Cells were incubated with 100 μg/ml taurolidine for six hours and processed for TUNEL analysis as given below. Parallel samples were stained with FITC-conjugated anti-CD14 and propidium iodide (PI) as described below. Ten thousand events were recorded per sample. TUNEL signal (x-axis) is a measure of DNA fragmentation, which FSC (y-axis) is related to cell size. TUNEL-negative lymphocytes are bounded by the rectangle R1, while TUNEL-negative monocytes (CD14 positive cells) are bounded by the rectangle R2. The vertical line indicates demarcation between TUNEL-negative and TUNEL-positive cells. There were minimal numbers of PI-positive cells in the six hour samples (see Table IV).
(§1) In the second method, DNA fragmentation was detected via TUNEL assay according to the manufacturer's instructions. With this methodology, 2×10^6 cells were fixed with 2% paraformaldehyde, permeabilized with 0.1% Triton X-100/0.1% citrate, incubated at 37° C. with terminal deoxynucleotidyl transferase and FITC-dUTP, rinsed and analyzed by flow cytometry. Enhanced FITC signal indicates apoptosis-specific DNA fragmentation. Gavriali, et al, "Identification of programmed cell death in situ via specific labeling of nuclear DNA fragmentation," J Cell Biol 119:493 (1992). Parallel aliquots of unfixed cells were treated with PI and FITC-conjugated anti-CD14 and analyzed by flow cytometry, in order to identify cells with permeable cell membranes (since PI binds to DNA but is excluded from cells with intact plasma membranes) and also to determine the cell-specificity of the apoptotic signal.
A Becton-Dickinson FACSCalibur instrument was used for flow cytometric analysis of cells. Assessment of cell diameter (forward scatter; FCS) and granularity (side scatter; SSC).was carried out on unfixed cells. Discrimination between lymphocytes and monocytes was made possible by their characteristic differences in FSC and SSC, and confirmed by staining monocytes with FITC-labeled anti-CD14 antibodies and lymphocytes with a combination of FITC-conjugated anti-CD3 and PE-conjugated anti-CD19. After incubation with taurolidine (with or without concomitant LPS treatment), cells were rinsed twice in phosphate-buffered saline containing 0.1% bovine serum albumin (PBSA) and 1×10^6 cells were resuspended in 0.1 ml PBSA. After 5 μl FITC-conjugated anti-CD14 was added, cells were incubated in the dark on ice for 15 minutes and then centrifuged at 250×g. Cells were resuspended in 500 μl PBSA containing 5 μg/ml PI and subjected to flow cytometry.
Consequently, TUNEL analysis was performed on PBMC at 3, 6, or 24 hours after treatment with 25 to 100 μg/ml taurolidine. Aliquots of harvested cells were also labeled with FITC-conjugated anti-CD14 antibodies and PI, which allowed identification of monocytes (CD14-positive cells) and cells with damaged cell membranes (PI-positive cells). […] Thus, nearly 75% of the monocytes were TUNEL-positive following treatment with 100 μg/ml taurolidine for six hours. Confirmation that the TUNEL-positive cells were monocytes was obtained by staining with FITC-conjugated anti-CD14.
^a Analysis by flow cytometry after staining cells with FITC-conjugated
anti-CD14 and PI, and processing for TUNEL. Data are mean ± SD of two
(§2) ^b Percent of cells present in the TUNEL-negative region in control

Lymphocytes [2] = assay: tissue or blood; type: cell-based, human; settings: for induction of apoptosis in lymphocytes: whole blood
Method: (§3) FIGS. 15A, 15B, and 15C depict TUNEL analysis of PBMC treated with taurolidine in whole blood, for control cells, taurolidine-treated cells, and anisomycin-treated cells, respectively . Cells were incubated with 500 μg/ml taurolidine for 4 hours, resuspended in fresh medium, incubated for two hours further and processed for TUNEL analysis. Parallel samples were stained with FITC-conjugated anti-CD14 and PI as described herein. Ten thousand events were recorded per sample. TUNEL signal (x -axis) is a measure of DNA fragmentation, while FSC (y-axis) is related to cell size. TUNEL-negative lymphocytes are bounded by rectangle R 1, while TUNEL-negative monocytes (CD 14 positive cells) are bounded by rectangle R2. R3 bounds the TUNEL-positive population of cells. There were minimal numbers of PI-positive cells in 6 hour samples (see Table VI).
as §1
(§4) Taurolidine at 100 μg/ml induced apoptosis of approximately 75% of purified peripheral blood monocytes when these cells were incubated in culture medium. However, in order to more closely mimic the milieu of leukocytes in vivo, induction of apoptosis in PBMC by taurolidine was studied in whole blood (anticoagulated with heparin). As before, apoptosis was quantitated by measuring the loss of monocytes from a TUTNEL-negative (no DNA fragmentation), CD 14 positive population of cells which was concomitant with the appearance of a TUNEL-positive population of cells. Treatment of PBMC in whole blood resulted
(§5) in a shift of the taurolidine dose-response curve. […] As a positive control for induction of apoptosis, some cells were treated with anisomycin, a protein synthesis inhibitor known to induce apoptosis in monocytes.
(§6) ^a Analysis by flow cytometry after staining cells with PI and
(§7) processing for TUNEL. Data are mean ± SD of 2 experiments.
as §2

Monocytes [3] = assay: tissue or blood; type: cell-based, human
Method: as §3, §1, §4, §5, §6, §7, §2

Monocytes [4] = settings: 24-hour taurolidine treatment; cited from earlier work
[5] = Homo sapiens, Lymphocyte, 6 h, read-out: % TUNEL-negative
[6] = Homo sapiens, Monocyte, 6 h, read-out: % TUNEL-negative

With `O=S1(=O)CCN(CN2CCS(=O)(=O)NC2)CN1` [taurolidine, 4,4'-methylenebis(perhydro-1,2,4-thiadiazin 1,1-dioxide)] the viability at 25 µg/mL (Lymphocytes [1]; Homo sapiens, Lymphocyte, lymphocytes, 25 μg/ml, percent of control, read-out: % TUNEL-Negative) was 100 ± 7%, the viability at 50 µg/mL (Lymphocytes [1]; Homo sapiens, Lymphocyte, lymphocytes, 50 μg/ml, percent of control, read-out: % TUNEL-Negative) was 99.8 ± 3.4% and the viability at 100 µg/mL (Lymphocytes [1]; Homo sapiens, Lymphocyte, lymphocytes, 100 μg/ml, percent of control, read-out: % TUNEL-Negative) was 102 ± 3.1%. The “cells remaining TUNEL-negative” value (Lymphocytes [1]; lymphocytes, up to 100 μg/ml taurolidine) was about 100%, the apoptosis in lymphocytes (Lymphocytes [1]; up to 100 μg/ml taurolidine, culture medium) was “did not induce detectable apoptosis” and the viability at 200 µg/mL (Lymphocytes [2]; [5]) was 92.7 ± 6%. For the same molecule, the viability at 500 µg/mL (Lymphocytes [2]; [5]) was 91.8 ± 6.9%, the “induction of apoptosis in lymphocytes” value (Lymphocytes [2]) was “no evidence for a significant effect” and the “induction of apoptosis in lymphocytes” value (Lymphocytes [2]; taurolidine up to 500 μg/ml) was “does not induce a significant amount of apoptosis”. For the same molecule, the viability at 200 µg/mL (Monocytes [3]; [6]) was 117 ± 11.2%, the viability at 500 µg/mL (Monocytes [3]; [6]) was 27.9 ± 12% and the cytotoxicity at 500 µg/mL (Monocytes [3]; Homo sapiens, Monocyte, read-out: loss of TUNEL-negative monocytes) was 70%. For the same molecule, the “induction of apoptosis in whole blood” value (Monocytes [3]; up to 200 μg/ml taurolidine) was “did not induce significant apoptosis”, the “effective concentration in whole blood relative to culture medium” value (Monocytes [3]; whole blood versus purified PBMC in culture medium) was 5 times and the “LDH release by monocytes” value (Monocytes [4]) was “no increase in LDH release”.
